Measured values reported in patent publication US20120122727A1, “IN VITRO METHOD FOR PREDICTING WHETHER A COMPOUND IS GENOTOXIC IN VIVO” (priority 2009, published 2012).

Test system: primary mouse hepatocytes
Experiment: Gene expression (Affymetrix Mouse Genome 430 2.0) in primary mouse hepatocytes, true vs false GTX, 24 h and 48 h
Conditions: log2, corrected for vehicle control

SMILES: Nc1ccccc1C(=O)O [ANAC, o-Anthranilic acid]
- Gene expression data AF000969 (Cadps2) (24 h average): −0.12
- Gene expression data AF022072 (Grb10) (24 h average): 0.4544
- Gene expression data AF065917 (Lif) (24 h average): −0.2023
- Gene expression data AF204959 (Cyp3a25 /// LOC622249) (24 h average): −0.28
- Gene expression data AF297615 (Ggta1) (24 h average): 0.03103
- Gene expression data AI594683 (Dmn) (24 h average): −0.2163
- Gene expression data AI596632 (Ptprg /// LOC632664) (24 h average): 0.1214
- Gene expression data AI987929 (Ndrg1) (24 h average): 0.6977
- Gene expression data AK004419 (Fbxl17) (24 h average): −0.01793
- Gene expression data AK005731 (1700007K13Rik) (24 h average): −0.1733
- Gene expression data AK007766 (1810044A24Rik) (24 h average): −0.05167
- Gene expression data AK007854 (1810053B23Rik) (24 h average): −0.4283
- Gene expression data AK009736 (Gpr137b /// LOC664862 /// LOC673335) (24 h average): −0.0957
- Gene expression data AK010447 (Smyd3) (24 h average): −0.1211
- Gene expression data AK014608 (4632434l11Rik) (24 h average): −0.1768
- Gene expression data AK019979 (2610528E23Rik) (24 h average): 0.1139
- Gene expression data AV095209 (Mthfd1l) (24 h average): 0.3162
- Gene expression data AV141095 (1110033M05Rik) (24 h average): −0.1293
- Gene expression data AV173571 (1700106N22Rik) (24 h average): −0.1574
- Gene expression data AV219418 (Ldhb) (24 h average): −0.2907
- Gene expression data AV223474 (Zdhhc14) (24 h average): −0.07347
- Gene expression data AV298304 (Homez) (24 h average): −0.0861
- Gene expression data AV327248 (Zfp365 /// LOC674611) (24 h average): 0.0212
- Gene expression data AV377066 (9130221J18Rik) (24 h average): −0.2482
- Gene expression data AW240761 (Tbc1d5) (24 h average): 0.001667
- Gene expression data AW543460 (Pard3) (24 h average): 0.06037
- Gene expression data AW543723 (24 h average): 0.2943
- Gene expression data AW986246 (Maoa) (24 h average): 0.01683
- Gene expression data BB027848 (4732466D17Rik) (24 h average): −0.03697
- Gene expression data BB043558 (9230114K14Rik) (24 h average): −0.1292
- Gene expression data BB275142 (AW456874) (24 h average): 0.02823
- Gene expression data BB308836 (Ppm1l) (24 h average): −0.0317
- Gene expression data BB318221 (Zdhhc14) (24 h average): 0.0002333
- Gene expression data BB463610 (4632434l11Rik) (24 h average): −0.3672
- Gene expression data BB526605 (Mipol1) (24 h average): 0.3407
- Gene expression data BB770528 (Rai2) (24 h average): −0.08327
- Gene expression data BB821363 (Scfd2) (24 h average): −0.084
- Gene expression data BC004827 (Psat1) (24 h average): 0.3937
- Gene expression data BC008626 (Icam1) (24 h average): −0.2705
- Gene expression data BC010462 (BC010462) (24 h average): −0.4089
- Gene expression data BC012247 (Dcxr) (24 h average): −0.0311
- Gene expression data BC012260 (Psmf1) (24 h average): −0.1838
- Gene expression data BC015270 (Hist2h3c2) (24 h average): 0.1186
- Gene expression data BC016073 (Cdkal1) (24 h average): 0.0051
- Gene expression data BC016265 (Ube2e2) (24 h average): 0.01507
- Gene expression data BC019882 (Acaa1b) (24 h average): 1.0984
- Gene expression data BC025501 (Aaas) (24 h average): −0.2261
- Gene expression data BC025837 (Sbk1) (24 h average): −0.3033
- Gene expression data BC025915 (Cova1) (24 h average): −0.05383
- Gene expression data BC026422 (Tgm1) (24 h average): 0.0232
- Gene expression data BF719766 (Thyn1) (24 h average): −0.1153
- Gene expression data BG065754 (Ccng1) (24 h average): −0.08917
- Gene expression data BG066903 (Kif16b) (24 h average): 0.0241
- Gene expression data BG069873 (Gnb1l) (24 h average): −0.2107
- Gene expression data BG070887 (Gtdc1) (24 h average): −0.05163
- Gene expression data BG076151 (Ppm1d) (24 h average): −0.08637
- Gene expression data BG261907 (Large) (24 h average): 0.09293
- Gene expression data BI651416 (Cdc42bpg) (24 h average): 0.01387
- Gene expression data BI660702 (Ell3) (24 h average): −0.1539
- Gene expression data BM198879 (Ercc5) (24 h average): −0.2194
- Gene expression data BM230508 (A030007D23Rik) (24 h average): −0.1178
- Gene expression data NM_007987 (Fas) (24 h average): −0.1337
- Gene expression data NM_008522 (Ltf) (24 h average): 0.0771
- Gene expression data NM_008576 (Abcc1) (24 h average): 0.3586
- Gene expression data NM_011176 (St14) (24 h average): −0.1445
- Gene expression data NM_011316 (Saa4) (24 h average): −0.1988
- Gene expression data NM_012006 (Acot1) (24 h average): 1.862
- Gene expression data NM_013866 (Zfp385) (24 h average): −0.1953
- Gene expression data NM_018770 (Igsf4a) (24 h average): −0.08853
- Gene expression data NM_021451 (Pmaip1) (24 h average): 0.01303
- Gene expression data NM_025770 (Atg10) (24 h average): −0.01263
- Gene expression data NM_028803 (Gbe1) (24 h average): −0.0826
- Gene expression data NM_030697 (Ankrd47) (24 h average): −0.1623
- Gene expression data NM_053168 (Trim11) (24 h average): −0.201
- Gene expression data NM_134188 (Acot2) (24 h average): 0.8696
- Gene expression data Y15910 (Diap2) (24 h average): 0.06533
- Gene expression AA561726 average (48 h): 0.3194
- Gene expression AF000969 average (48 h): −0.5599
- Gene expression AF022072 average (48 h): 0.5563
- Gene expression AF033112 average (48 h): 0.1422
- Gene expression AF055573 average (48 h): −0.1687
- Gene expression AF069954 average (48 h): −0.3847
- Gene expression AF297615 average (48 h): 0.111
- Gene expression AF335325 average (48 h): −0.0865
- Gene expression AI594683 average (48 h): −0.5224
- Gene expression AI747296 average (48 h): −0.0394
- Gene expression AK005731 average (48 h): −0.6498
- Gene expression AK007854 average (48 h): −0.2242
- Gene expression AK010447 average (48 h): −0.1083
- Gene expression AK010738 average (48 h): −0.06687
- Gene expression AK014608 average (48 h): −0.455
- Gene expression AK017734 average (48 h): −0.5275
- Gene expression AK018383 average (48 h): −0.0203
- Gene expression AK019979 average (48 h): 0.04547
- Gene expression AV095209 average (48 h): 0.2956
- Gene expression AV141095 average (48 h): −0.0311
- Gene expression AV173869 average (48 h): −0.005067
- Gene expression AV216768 average (48 h): 0.4153
- Gene expression AV219418 average (48 h): 0.1539
- Gene expression AV221299 average (48 h): 0.1649
- Gene expression AV246296 average (48 h): −0.1054
- Gene expression AV251625 average (48 h): 0.0423
- Gene expression AV254764 average (48 h): −0.265
- Gene expression AV327248 average (48 h): 0.0856
- Gene expression BB009155 average (48 h): −0.4697
- Gene expression BB027848 average (48 h): −0.2609
- Gene expression BB043558 average (48 h): −0.188
- Gene expression BB046347 average (48 h): −0.1072
- Gene expression BB140436 average (48 h): −0.07237
- Gene expression BB204486 average (48 h): 0.3188
- Gene expression BB223872 average (48 h): −0.4287
- Gene expression BB246912 average (48 h): −0.1992
- Gene expression BB275142 average (48 h): −0.2874
- Gene expression BB458460 average (48 h): 0.007967
- Gene expression BB463610 average (48 h): −0.2186
- Gene expression BB730977 average (48 h): 0.7532
- Gene expression BB743970 average (48 h): 0.1551
- Gene expression BB770528 average (48 h): −0.001733
- Gene expression BB781615 average (48 h): −0.2937
- Gene expression BC003284 average (48 h): −0.2108
- Gene expression BC004827 average (48 h): 0.3756
- Gene expression BC005552 average (48 h): 0.3056
- Gene expression BC006713 average (48 h): −0.1305
- Gene expression BC010318 average (48 h): 0.1353
- Gene expression BC012247 average (48 h): −0.5319
- Gene expression BC012955 average (48 h): −0.2554
- Gene expression BC013893 average (48 h): −0.5709
- Gene expression BC017615 average (48 h): 0.06827
- Gene expression BC019379 average (48 h): 0.0072
- Gene expression BC019882 average (48 h): 0.1948
- Gene expression BC021352 average (48 h): 0.06563
- Gene expression BC022148 average (48 h): −0.1976
- Gene expression BC025169 average (48 h): −0.0788
- Gene expression BC026131 average (48 h): 0.0392
- Gene expression BC027026 average (48 h): −0.007933
- Gene expression BC027121 average (48 h): −0.1424
- Gene expression BC027185 average (48 h): −0.2381
- Gene expression BE956581 average (48 h): 0.04267
- Gene expression BF719766 average (48 h): 0.07637
- Gene expression BG065754 average (48 h): 0.0641
- Gene expression BG066491 average (48 h): −0.061
- Gene expression BG076151 average (48 h): −0.241
- Gene expression BG076333 average (48 h): 0.2383
- Gene expression BG797099 average (48 h): −0.02097
- Gene expression BG967046 average (48 h): −0.2562
- Gene expression BI651416 average (48 h): −0.1051
- Gene expression BI966443 average (48 h): 0.07723
- Gene expression BM198879 average (48 h): −0.1608
- Gene expression BM200015 average (48 h): 0.009533
- Gene expression BM230508 average (48 h): −0.471
- Gene expression BM936480 average (48 h): −0.04323
- Gene expression BQ174991 average (48 h): 0.4039
- Gene expression L21027 average (48 h): 0.3857
- Gene expression NM_007556 average (48 h): 0.5247
- Gene expression NM_007980 average (48 h): 0.1776
- Gene expression NM_007987 average (48 h): −0.005833
- Gene expression NM_008522 average (48 h): −0.06957
- Gene expression NM_008935 average (48 h): 0.3779
- Gene expression NM_009897 average (48 h): 0.09963
- Gene expression NM_011075 average (48 h): 0.3891
- Gene expression NM_011176 average (48 h): −0.4607
- Gene expression NM_011316 average (48 h): −0.4717
- Gene expression NM_012006 average (48 h): 1.5971
- Gene expression NM_013642 average (48 h): 0.3286
- Gene expression NM_013738 average (48 h): −0.3378
- Gene expression NM_013929 average (48 h): −0.006633
- Gene expression NM_018881 average (48 h): 0.08383
- Gene expression NM_019738 average (48 h): −0.6326
- Gene expression NM_030697 average (48 h): −0.6238
- Gene expression NM_053122 average (48 h): −0.04513
- Gene expression NM_134147 average (48 h): −0.2207
- Gene expression NM_134188 average (48 h): 0.2382
- Gene expression X62701 average (48 h): 0.7542
